Results: patent US4362663A, “Maytansinoid compound” (Takeda Chemical Industries, Ltd., priority 1979, dated 1982)
≈ marks a conversion by molar mass, not a printed value.

Key:
[1] = test system: Bacillus cereus; assay: Antimicrobial activity, paper disk method on trypticase-soy-agar; format: cell-based; details: paper disk diam. 8 mm, 0.02 ml of a 300 μg/ml solution
Procedure: (§1) Using trypticase-soy-agar (Baltimore Biologicals, U.S.A.) as a test medium, the minimal inhibitory concentration of each compound against the following microorganisms was determined by the paper disk method. Thus, on plate media containing the following organisms, growth inhibition was investigated using paper disks (Toyo Roshi Corp., Japan thin-type, diam. 8 mm) imbibed with 0.02 ml of a 300 μg/ml solution of PND-1, PND-2, PND-3 or PND-4.
(§2) Escherichia coli, Proteus vulgaris, Proteus mirabilis, Pseudomonas aeruginosa, Staphylococcus aureus, Bacillus subtilis, Bacillus cereus, Klebsiella pneumoniae, Serratia marcescens, Mycobacterium avium.

[2] = test system: Bacillus subtilis; assay: as above; format: cell-based; details: paper disk diam. 8 mm, 0.02 ml of a 300 μg/ml solution
Procedure: as §1, §2

[3] = test system: Escherichia coli; assay: as above; format: cell-based; details: paper disk diam. 8 mm, 0.02 ml of a 300 μg/ml solution
Procedure: as §1, §2

[4] = test system: Klebsiella pneumoniae; assay: as above; format: cell-based; details: paper disk diam. 8 mm, 0.02 ml of a 300 μg/ml solution
Procedure: as §1, §2

[5] = test system: Mycobacterium avium; assay: as above; format: cell-based; details: paper disk diam. 8 mm, 0.02 ml of a 300 μg/ml solution
Procedure: as §1, §2

[6] = test system: Proteus mirabilis; assay: as above; format: cell-based; details: paper disk diam. 8 mm, 0.02 ml of a 300 μg/ml solution
Procedure: as §1, §2

[7] = test system: Proteus vulgaris; assay: as above; format: cell-based; details: paper disk diam. 8 mm, 0.02 ml of a 300 μg/ml solution
Procedure: as §1, §2

[8] = test system: Pseudomonas aeruginosa; assay: as above; format: cell-based; details: paper disk diam. 8 mm, 0.02 ml of a 300 μg/ml solution
Procedure: as §1, §2

[9] = test system: Serratia marcescens; assay: as above; format: cell-based; details: paper disk diam. 8 mm, 0.02 ml of a 300 μg/ml solution
Procedure: as §1, §2

[10] = test system: Staphylococcus aureus; assay: as above; format: cell-based; details: paper disk diam. 8 mm, 0.02 ml of a 300 μg/ml solution
Procedure: as §1, §2

[11] = test system: Hamigera avellanea IFO 7721; assay: Microbiological assay, paper disk method; format: cell-based; details: IFO7721, paper disk diam. 8 mm, 0.02 ml of a 100 μg/ml solution, pH 7.0 medium, read-out: diameter of zone of inhibition
Procedure: On the other hand, on a plate assay medium [disodium phosphate 3.5 g, monopotassium phosphate 0.5 g, yeast extract (Difco, U.S.A.) 5 g, glucose 10 g, agar 15 g, distilled water 1000 ml, pH 7.0], a microbiological assay was carried out by the paper disk method using Hamigera avellanea IFO 7721 as a test organism. On said plate medium inoculated with said organism, growth inhibition was examined using a paper disk (Toyo Roshi Corp., Japan, Thin type, diam.8 mm) imbibed with 0.02 ml of a 100 μg/ml solution of PND-1, PND-2, PND-3 or PND-4. The diameters of zones of inhibition were 28 mm for PND-1, 30 mm for PND-2, 34 mm for PND-3 and 36 mm for PND-4.

[12] = test system: Tetrahymena pyriformis W strain; assay: Minimal inhibitory concentration, serial broth dilution method; format: cell-based; details: 28° C., 44 to 48 hours
Procedure: On the other hand, Tetrahymena pyriformis W strain, as a test organism, was cultivated on an assay medium [Proteose-peptone (Difco) 20 g, yeast extract 1 g, glucose 2 g, distilled water 1000 ml, 1 M phosphate buffer (pH 7.0) 10 ml] at 28° C. for 44 to 48 hours and the minimal inhibitory concentrations of the antibiotics against said organisms were determined by the serial broth dilution method.

[13] = test system: P388 tumor cell; assay: Antitumor activity in P388 tumor-bearing mice; format: in vivo; details: P388 1×10^6 cell/mouse, intraperitoneal
Excerpt: The therapeutic action of PND-1, PND-2, PND-3 and PND-4 against P388 tumor cell (1×10^6 cell/mouse, intraperitoneal) was investigated.

[14] = test system: mice; assay: Acute toxicity test in mice; format: in vivo; details: intraperitoneal
Excerpt: In an acute toxicity test performed in mice, PND-1, PND-2, PND-3 and PND-4 were given to animals by the intraperitoneal route.

[15] = Solubility; format: physicochemical

With `CCC(=O)O[C@H]1CC(=O)Nc2cc(cc(OC)c2Cl)C/C(C)=C/C=C/[C@@H](OC)[C@@]2(O)C[C@H](OC(=O)N2)[C@@H](C)[C@@H]2O[C@@]12C` [PND-2] the growth inhibition [1] was “did not exhibit activity”, the growth inhibition [2] was “did not exhibit activity” and the growth inhibition [3] was “did not exhibit activity”. For the same molecule, the growth inhibition [4] was “did not exhibit activity”, the growth inhibition [5] was “did not exhibit activity” and the growth inhibition [6] was “did not exhibit activity”. For the same molecule, the growth inhibition [7] was “did not exhibit activity”, the growth inhibition [8] was “did not exhibit activity” and the growth inhibition [9] was “did not exhibit activity”. The growth inhibition [10] was “did not exhibit activity”, the zone of inhibition at 100 µg/mL [11] was 30 mm and the MIC [12] was 4 µg/mL (≈ 6.59 µM). For the same molecule, the “life span of tumor-bearing mouse” value [13] was “prolong the life span of a tumor-bearing mouse”, the LD0 [14] was 0.313 mg/kg and the LD100 [14] was 2.5 mg/kg. For the same molecule, the “Solubility in chloroform, ethyl acetate, acetone, ethanol, methanol, pyridine, tetrahydrofuran, dimethylsulfoxydo” value (“Solubility in chloroform, ethyl acetate” below) [15] was “soluble” and the “Solubility in petroleum ether, n-hexane, water” value (“Solubility in petroleum ether” for short) [15] was “insoluble”.

For `COc1cc2cc(c1Cl)NC(=O)C[C@H](OC(=O)CC(C)C)[C@]1(C)O[C@H]1[C@H](C)[C@@H]1C[C@@](O)(NC(=O)O1)[C@H](OC)/C=C/C=C(\C)C2` [PND-4], the growth inhibition [1] was “did not exhibit activity”, the growth inhibition [2] was “did not exhibit activity” and the growth inhibition [3] was “did not exhibit activity”. For the same molecule, the growth inhibition [4] was “did not exhibit activity”, the growth inhibition [5] was “did not exhibit activity” and the growth inhibition [6] was “did not exhibit activity”. For the same molecule, the growth inhibition [7] was “did not exhibit activity”, the growth inhibition [8] was “did not exhibit activity” and the growth inhibition [9] was “did not exhibit activity”. The growth inhibition [10] was “did not exhibit activity”, the zone of inhibition at 100 µg/mL [11] was 36 mm and the MIC [12] was 1 µg/mL (≈ 1.57 µM). The “life span of tumor-bearing mouse” value [13] was “prolong the life span of a tumor-bearing mouse”, the LD0 [14] was 0.313 mg/kg and the LD100 [14] was 2.5 mg/kg. The “Solubility in chloroform, ethyl acetate” value [15] was “soluble” and the “Solubility in petroleum ether” value [15] was “insoluble”.

In the case of `COc1cc2cc(c1Cl)NC(=O)C[C@H](OC(=O)C(C)C)[C@]1(C)O[C@H]1[C@H](C)[C@@H]1C[C@@](O)(NC(=O)O1)[C@H](OC)/C=C/C=C(\C)C2` [PND-3], the growth inhibition [1] is reported as “did not exhibit activity”, the growth inhibition [2] is reported as “did not exhibit activity” and the growth inhibition [3] is reported as “did not exhibit activity”. The growth inhibition [4] was “did not exhibit activity”, the growth inhibition [5] was “did not exhibit activity” and the growth inhibition [6] was “did not exhibit activity”. For the same molecule, the growth inhibition [7] was “did not exhibit activity”, the growth inhibition [8] was “did not exhibit activity” and the growth inhibition [9] was “did not exhibit activity”. For the same molecule, the growth inhibition [10] was “did not exhibit activity”, the zone of inhibition at 100 µg/mL [11] was 34 mm and the MIC [12] was 2 µg/mL (≈ 3.22 µM). For the same molecule, the “life span of tumor-bearing mouse” value [13] was “prolong the life span of a tumor-bearing mouse”, the LD0 [14] was 0.313 mg/kg and the LD100 [14] was 2.5 mg/kg. The “Solubility in chloroform, ethyl acetate” value [15] was “soluble” and the “Solubility in petroleum ether” value [15] was “insoluble”.

In the case of `COc1cc2cc(c1Cl)NC(=O)C[C@H](OC(C)=O)[C@]1(C)O[C@H]1[C@H](C)[C@@H]1C[C@@](O)(NC(=O)O1)[C@H](OC)/C=C/C=C(\C)C2` [PND-1], the growth inhibition [1] is reported as “did not exhibit activity”, the growth inhibition [2] is reported as “did not exhibit activity” and the growth inhibition [3] is reported as “did not exhibit activity”. The growth inhibition [4] was “did not exhibit activity”, the growth inhibition [5] was “did not exhibit activity” and the growth inhibition [6] was “did not exhibit activity”. The growth inhibition [7] was “did not exhibit activity”, the growth inhibition [8] was “did not exhibit activity” and the growth inhibition [9] was “did not exhibit activity”. For the same molecule, the growth inhibition [10] was “did not exhibit activity”, the zone of inhibition at 100 µg/mL [11] was 28 mm and the MIC [12] was 8 µg/mL (≈ 13.5 µM). For the same molecule, the “life span of tumor-bearing mouse” value [13] was “prolong the life span of a tumor-bearing mouse”, the LD0 [14] was 0.313 mg/kg and the LD100 [14] was 2.5 mg/kg. For the same molecule, the “Solubility in chloroform, ethyl acetate” value [15] was “soluble” and the “Solubility in petroleum ether” value [15] was “insoluble”.

In the case of `COc1cc2cc(c1Cl)NC(=O)C[C@H](O)[C@]1(C)O[C@H]1[C@H](C)[C@@H]1C[C@@](O)(NC(=O)O1)[C@H](OC)/C=C/C=C(\C)C2` [PND-0], the “Solubility in chloroform, ethyl acetate” value [15] is reported as “soluble” and the “Solubility in petroleum ether” value [15] is reported as “insoluble”.
